The source of these data is article PMC6934184, “Selective DNA-PKcs inhibition extends the therapeutic index of localized radiotherapy and chemotherapy” (The Journal of Clinical Investigation, 2019).

“And” between values parts separate entries of the source, which are not always exact repeats. Equal values may be shown once.

Holding throughout (test): SelectScreen Profiling IC50
Common to all, as to format: biochemical

One test concerns the target PI3K-C2β (Homo sapiens, UniProt O00750). Particulars: ATP 10 μM. The method, then:
(§1) The in vitro kinase selectivity of NU5455 was determined using the SelectScreen Broad Assay Panel (Thermo Fisher Scientific) involving activity and binding assays (Supplemental Table 1). […] Class IA PI3Ks were measured using the p85α subunit.
(§2) PI3K Kinase NU5455 IC (nM) Fold selectivity
(§3) Supplemental Table 2. NU5455 potency and selectivity across the PI3K kinase family.
(§4) µM NU5455 for DNA-PK versus other PIKK and PI3K family members was assessed by SelectScreen Profiling (Life Technologies). The
(§5) ATP concentration was the Kmapp except for * where the ATP concentration was 10 μM (mean ± SEM, n=4-7).

The target of the next test is Vps34 (Homo sapiens, UniProt Q8NEB9). The method, then: as §1, §2, §3, §4, §5
The target of another test is p110δ (Homo sapiens, UniProt O00329). On the procedure:
as §1, §2, §3, §4, §5

The target of a further test is ATM (Homo sapiens, UniProt Q13315). On the procedure: as §1, §2, §3, §4, §5
Chain of ATM (Q13315 whole entry): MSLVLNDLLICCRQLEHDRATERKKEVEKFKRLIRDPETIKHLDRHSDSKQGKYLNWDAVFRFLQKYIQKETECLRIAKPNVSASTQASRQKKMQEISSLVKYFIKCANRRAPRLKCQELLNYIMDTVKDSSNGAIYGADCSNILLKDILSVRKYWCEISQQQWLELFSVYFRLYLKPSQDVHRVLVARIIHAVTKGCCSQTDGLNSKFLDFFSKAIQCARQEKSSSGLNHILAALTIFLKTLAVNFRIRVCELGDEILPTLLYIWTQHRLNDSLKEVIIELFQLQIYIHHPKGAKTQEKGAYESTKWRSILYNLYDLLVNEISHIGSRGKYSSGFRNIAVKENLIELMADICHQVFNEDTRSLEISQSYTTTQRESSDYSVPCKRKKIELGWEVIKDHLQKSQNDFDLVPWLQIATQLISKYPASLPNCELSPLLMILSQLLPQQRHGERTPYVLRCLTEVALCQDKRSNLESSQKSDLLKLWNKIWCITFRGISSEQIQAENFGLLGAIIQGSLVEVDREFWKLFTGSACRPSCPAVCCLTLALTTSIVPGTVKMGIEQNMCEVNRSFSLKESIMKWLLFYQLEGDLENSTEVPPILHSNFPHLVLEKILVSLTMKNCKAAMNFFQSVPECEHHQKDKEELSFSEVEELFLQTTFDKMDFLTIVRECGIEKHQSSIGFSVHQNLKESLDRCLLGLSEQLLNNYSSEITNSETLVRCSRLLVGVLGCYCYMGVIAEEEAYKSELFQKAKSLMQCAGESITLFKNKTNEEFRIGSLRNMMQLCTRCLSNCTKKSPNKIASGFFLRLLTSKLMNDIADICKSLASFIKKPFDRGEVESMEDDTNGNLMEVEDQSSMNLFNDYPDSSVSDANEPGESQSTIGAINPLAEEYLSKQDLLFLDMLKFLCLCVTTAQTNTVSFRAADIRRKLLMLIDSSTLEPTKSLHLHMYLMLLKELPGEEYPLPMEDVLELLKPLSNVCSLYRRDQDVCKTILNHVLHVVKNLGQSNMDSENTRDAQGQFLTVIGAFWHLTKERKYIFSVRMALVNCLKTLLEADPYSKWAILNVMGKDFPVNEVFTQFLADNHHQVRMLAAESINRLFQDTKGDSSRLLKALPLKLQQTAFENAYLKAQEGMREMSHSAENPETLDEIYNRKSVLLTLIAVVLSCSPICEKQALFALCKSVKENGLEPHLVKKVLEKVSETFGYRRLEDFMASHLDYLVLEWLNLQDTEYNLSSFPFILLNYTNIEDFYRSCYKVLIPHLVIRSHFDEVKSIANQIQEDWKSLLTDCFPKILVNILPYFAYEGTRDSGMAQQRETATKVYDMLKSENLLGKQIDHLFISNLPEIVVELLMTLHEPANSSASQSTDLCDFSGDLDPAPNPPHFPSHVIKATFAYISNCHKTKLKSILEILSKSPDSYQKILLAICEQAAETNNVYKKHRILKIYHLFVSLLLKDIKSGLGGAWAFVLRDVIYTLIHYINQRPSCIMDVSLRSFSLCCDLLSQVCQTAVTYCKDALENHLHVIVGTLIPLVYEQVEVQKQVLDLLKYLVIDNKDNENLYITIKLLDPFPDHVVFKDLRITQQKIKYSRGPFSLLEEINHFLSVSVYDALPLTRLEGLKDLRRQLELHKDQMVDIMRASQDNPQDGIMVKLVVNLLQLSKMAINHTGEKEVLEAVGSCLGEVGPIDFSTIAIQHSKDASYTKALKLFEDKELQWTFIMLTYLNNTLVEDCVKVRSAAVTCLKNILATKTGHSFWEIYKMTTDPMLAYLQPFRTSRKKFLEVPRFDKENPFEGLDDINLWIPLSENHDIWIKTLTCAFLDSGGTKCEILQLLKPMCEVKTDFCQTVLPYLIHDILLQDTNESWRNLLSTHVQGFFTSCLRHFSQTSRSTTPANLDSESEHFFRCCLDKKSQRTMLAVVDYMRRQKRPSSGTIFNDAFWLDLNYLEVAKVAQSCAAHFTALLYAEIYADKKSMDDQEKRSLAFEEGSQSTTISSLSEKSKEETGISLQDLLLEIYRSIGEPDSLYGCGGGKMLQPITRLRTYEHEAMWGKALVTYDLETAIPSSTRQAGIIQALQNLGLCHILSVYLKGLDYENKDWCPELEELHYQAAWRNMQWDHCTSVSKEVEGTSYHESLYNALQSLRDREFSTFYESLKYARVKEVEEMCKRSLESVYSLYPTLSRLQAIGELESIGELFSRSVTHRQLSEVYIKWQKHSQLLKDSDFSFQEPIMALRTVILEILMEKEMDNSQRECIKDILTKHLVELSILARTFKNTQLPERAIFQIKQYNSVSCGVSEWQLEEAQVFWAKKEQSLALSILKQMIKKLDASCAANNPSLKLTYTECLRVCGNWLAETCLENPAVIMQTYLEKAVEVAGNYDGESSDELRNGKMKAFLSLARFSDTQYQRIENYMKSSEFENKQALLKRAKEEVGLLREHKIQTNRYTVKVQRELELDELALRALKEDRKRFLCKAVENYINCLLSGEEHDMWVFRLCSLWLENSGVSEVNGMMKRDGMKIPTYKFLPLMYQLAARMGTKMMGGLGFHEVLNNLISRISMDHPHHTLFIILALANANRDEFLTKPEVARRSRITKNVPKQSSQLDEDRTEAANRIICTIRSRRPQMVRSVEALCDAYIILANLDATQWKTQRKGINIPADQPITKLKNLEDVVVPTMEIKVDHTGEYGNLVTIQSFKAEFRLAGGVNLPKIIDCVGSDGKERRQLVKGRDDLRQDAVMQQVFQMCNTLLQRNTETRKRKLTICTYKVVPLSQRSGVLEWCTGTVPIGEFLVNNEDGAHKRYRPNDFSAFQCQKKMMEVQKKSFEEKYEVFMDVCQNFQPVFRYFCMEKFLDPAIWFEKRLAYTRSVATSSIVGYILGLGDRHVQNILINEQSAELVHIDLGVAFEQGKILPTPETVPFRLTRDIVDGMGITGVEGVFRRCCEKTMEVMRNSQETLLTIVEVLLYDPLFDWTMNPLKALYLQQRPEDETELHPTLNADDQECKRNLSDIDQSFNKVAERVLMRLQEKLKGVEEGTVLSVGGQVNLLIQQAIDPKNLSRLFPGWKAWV
The target in the next test is PI3K-C2α (Homo sapiens, UniProt O00443). On the procedure: as §1, §2, §3, §4, §5
Chain of PI3K-C2α (O00443 whole entry): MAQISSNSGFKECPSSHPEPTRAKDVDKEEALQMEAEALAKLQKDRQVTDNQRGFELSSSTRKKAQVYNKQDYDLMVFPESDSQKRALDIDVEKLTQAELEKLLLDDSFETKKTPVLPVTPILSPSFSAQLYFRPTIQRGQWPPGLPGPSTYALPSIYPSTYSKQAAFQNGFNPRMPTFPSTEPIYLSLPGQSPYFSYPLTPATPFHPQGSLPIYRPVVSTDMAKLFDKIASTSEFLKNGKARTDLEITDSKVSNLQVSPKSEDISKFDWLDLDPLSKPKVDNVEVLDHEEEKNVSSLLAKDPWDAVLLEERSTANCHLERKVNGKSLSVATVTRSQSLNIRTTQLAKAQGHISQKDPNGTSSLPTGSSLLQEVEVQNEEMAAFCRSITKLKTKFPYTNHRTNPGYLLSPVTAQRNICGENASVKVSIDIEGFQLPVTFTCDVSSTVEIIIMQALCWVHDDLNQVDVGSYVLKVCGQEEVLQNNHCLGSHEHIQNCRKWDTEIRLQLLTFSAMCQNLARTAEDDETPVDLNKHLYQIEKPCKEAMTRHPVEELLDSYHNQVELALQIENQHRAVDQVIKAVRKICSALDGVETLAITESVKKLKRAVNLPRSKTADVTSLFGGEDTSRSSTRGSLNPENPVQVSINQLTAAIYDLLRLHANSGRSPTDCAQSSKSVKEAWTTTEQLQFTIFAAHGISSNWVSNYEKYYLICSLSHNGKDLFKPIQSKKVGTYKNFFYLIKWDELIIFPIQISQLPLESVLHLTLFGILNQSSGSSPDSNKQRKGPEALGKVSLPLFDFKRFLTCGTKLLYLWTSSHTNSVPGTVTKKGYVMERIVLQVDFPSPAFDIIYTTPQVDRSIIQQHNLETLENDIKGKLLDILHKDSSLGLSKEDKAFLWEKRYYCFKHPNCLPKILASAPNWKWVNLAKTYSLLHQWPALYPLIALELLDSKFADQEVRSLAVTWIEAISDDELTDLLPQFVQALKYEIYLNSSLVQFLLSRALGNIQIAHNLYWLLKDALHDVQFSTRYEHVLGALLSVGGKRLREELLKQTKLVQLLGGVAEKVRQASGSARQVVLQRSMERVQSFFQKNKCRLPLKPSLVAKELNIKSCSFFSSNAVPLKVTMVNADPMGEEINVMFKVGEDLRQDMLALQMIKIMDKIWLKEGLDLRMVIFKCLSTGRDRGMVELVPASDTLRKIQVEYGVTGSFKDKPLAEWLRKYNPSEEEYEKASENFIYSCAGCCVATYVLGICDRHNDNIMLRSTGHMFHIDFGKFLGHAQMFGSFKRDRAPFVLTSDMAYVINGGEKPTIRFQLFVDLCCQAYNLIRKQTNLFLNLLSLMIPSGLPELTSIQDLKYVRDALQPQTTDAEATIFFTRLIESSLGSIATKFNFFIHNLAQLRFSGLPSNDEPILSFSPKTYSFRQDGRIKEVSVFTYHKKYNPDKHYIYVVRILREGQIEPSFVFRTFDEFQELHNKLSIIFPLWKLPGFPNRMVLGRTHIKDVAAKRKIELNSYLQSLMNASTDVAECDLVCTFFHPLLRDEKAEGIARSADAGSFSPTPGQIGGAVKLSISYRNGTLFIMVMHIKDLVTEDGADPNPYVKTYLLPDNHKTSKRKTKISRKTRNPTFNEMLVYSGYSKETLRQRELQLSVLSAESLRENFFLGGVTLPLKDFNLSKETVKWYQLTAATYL
Another test concerns the target p110α (Homo sapiens, UniProt P42336). The method, then:
as §1, §2, §3, §4, §5

In the next test the target is p110γ (Homo sapiens, UniProt P48736). On the procedure: as §1, §2, §3, §4, §5
Another test concerns the target p110β (Homo sapiens, UniProt P42338). On the procedure:
as §1, §2, §3, §4, §5

A further test addresses PI3K-C2γ (Homo sapiens, UniProt O75747). On the procedure: as §1, §2, §3, §4, §5
The target in a further test is mTOR (Homo sapiens, UniProt P42345). On the procedure:
as §1, §2, §3, §4, §5

Another test concerns the target DNA-PK (Homo sapiens, UniProt P78527). Particulars: cell-free; ATP Km app; mean ± SEM, n=4-7; read-out: NU5455 IC50. The method, then:
as §1, §2, §3, §4, §5

For the next test, the target named is ATR (Homo sapiens, UniProt Q13535). On the procedure: as §1, §2, §3, §4, §5
Where [1] appears, read: cell-free, ATP Km app, mean ± SEM, read-out: NU5455 IC50.
The mark [2] stands for this setting: cell-free, ATP Km app, p85α subunit, mean ± SEM, read-out: NU5455 IC50.
The mark [3] stands for this setting: cell-free, ATP Km app, read-out: NU5455 IC50.

The IC50 is the point on the concentration scale where inhibition reaches its midpoint.

On to `CN(C(=O)CN1CCOCC1)c1ccc2sc3c(-c4cccc5c(=O)cc(N6CC7CCC(C6)O7)oc45)cccc3c2c1` [NU5455], for which the half-inhibitory concentration (IC50) was 1960 ± 424 nM on PI3K-C2β (cell-free, mean ± SEM, read-out: NU5455 IC50); 71 ± 19 nM on Vps34 (setting [1]); 276 ± 22 nM at p110δ (setting [2]); more than 10 µM on ATM (setting [3]); more than 10 µM on PI3K-C2α (setting [3]); 1870 ± 216 nM on p110α (setting [2]). Also, the IC50 is more than 10 µM at p110γ (setting [3]); 9.32 ± 1.25 µM on p110β (setting [2]); more than 10 µM on PI3K-C2γ (setting [3]); 4.06 ± 1.12 µM on mTOR (setting [1]); 8.2 ± 2 nM at DNA-PK; more than 10 µM on ATR (setting [3]). Also, the “Fold selectivity for DNA-PK” value on PI3K-C2β (versus PI3K-C2β) is 239 fold; at Vps34 (versus Vps34), 8.7 fold; at p110δ (versus p110δ (PI3Kδ)), 33.7 fold; on ATM (versus ATM), > 1220 fold and > 1200 fold; on PI3K-C2α (versus PI3K-C2α), more than 1220 fold; on p110α (versus p110α (PI3Kα)), 228 fold. For the same compound, the “Fold selectivity for DNA-PK” value was more than 1220 fold at p110γ (versus p110γ); 1137 fold at p110β (versus p110β); more than 1220 fold at PI3K-C2γ (versus PI3K-C2γ); 495 fold on mTOR (versus mTOR); > 1220 fold and > 1200 fold at ATR (versus ATR).
